Results taken from patent US20240350476A1 (priority 2023, published 2024).

Columns and labels:
[1] = oral dissolvable film containing 1.6 mg of 6-methylnicotine, placed inside the cheek, compared to a film containing 2 mg of nicotine; four volunteer subjects, self-reported
Procedure: Four volunteer subjects were provided with an oral dissolvable film according to the disclosure containing 1.6 mg of 6-methylnicotine and an oral dissolvable film containing 2 mg of nicotine. Each subject placed the nicotine strip against the inside of their cheek and noted their physiological response. Subjects abstained from nicotine or tobacco usage for 1 hour after consuming the nicotine strip, then placed the 6-methylnicotine strip according to the disclosure against the inside of their cheek and noted their physiological response.

[2] = measured approximately 1 minute after placing the pouch adjacent to the gum line; five blindfolded volunteer subjects, one-hour break between tests
Procedure: Five volunteer subjects compared the effects of nicotine consumption and 6-methylnicotine consumption on blood pressure Subjects were blindfolded and had their blood pressure measured before using a pouch (to provide a baseline blood pressure) and re-measured approximately 1 minute after placing a nicotine pouch or a 6-methylnicotine pouch adjacent to the gum line. All subjects performed the test with a nicotine pouch and with a 6-methylnicotine pouch on the same day with a one-hour break between the tests.

[3] = Procedure: Six volunteer subjects who are regular users of nicotine pouches containing 8 mg of nicotine were each administered an oral pouch of the disclosure containing 3 mg of 6-methylnicotine. Each subject used the 6-methylnicotine pouch in the same manner as a nicotine pouch, by placing the pouch inside the mouth and adjacent to the lip and gum.

Cc1ccc([C@@H]2CCCN2C)cn1 (stereo in doubt) [6-methylnicotine]
physiological response (as a perceived "head rush") [1]: stronger physiological response | blood pressure following usage of a 6-methylnicotine pouch versus a nicotine pouch [2]: No significant difference | physiological effect, such as a "head rush" experienced during pouch usage ([3]; in vivo, po): more potent physiological effect | desire to use nicotine- or tobacco-based products after use of the pouch ([3]; oral pouch containing 3 mg of 6-methylnicotine, six volunteer subjects who regularly use 8 mg nicotine pouches, self-reported): zero desire to use nicotine- or tobacco-based products
